Measured values published in PMC5430920 (Scientific Reports, 2017).

Tests used:
MtOPRT [1] = target: T1, MtOPRT (Mycobacterium tuberculosis, UniProt P9WHK9)
T1 construct: gene pyrE

MtOPRT [2] = target: T1, MtOPRT; remark: listed apart in the source

T1 sequence (P9WHK9 whole entry): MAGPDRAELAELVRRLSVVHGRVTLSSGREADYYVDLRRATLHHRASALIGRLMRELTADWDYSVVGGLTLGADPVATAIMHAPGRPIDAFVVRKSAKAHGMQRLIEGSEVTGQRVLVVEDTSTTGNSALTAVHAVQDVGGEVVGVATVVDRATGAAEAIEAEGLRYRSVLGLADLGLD

Compound | X-ray crystal structure, 2.25 Å (MtOPRT [1]) | X-ray crystal structure, 1.90 Å (MtOPRT [2])
O=P(O)(O)OC[C@H]1O[C@H](OP(=O)(O)OP(=O)(O)O)[C@H](O)[C@@H]1O [PRPP, α-D-5-phosphoribosyl-1-pyrophosphate] | A PRPP molecule could be unambiguously identified in the active site in both monomers | –
O=P(O)(O)O [Pi, inorganic phosphate] | – | the inorganic phosphate occupies the same binding pocket of the 5-phosphate group of PRPP
